Publication PMC4643876, “Picomolar Inhibition of Plasmepsin V, an Essential Malaria Protease, Achieved Exploiting the Prime Region” (PLoS ONE, 2015)
Where two headings read alike, the source gives them in different places. Square brackets hold non-standard residues; d marks the D form. Peptide text beside a SMILES is read from it. * marks the point of attachment. Sta = CC(C)C[C@H](N)[C@@H](O)CC(=O)O; Isovaleryl = CC(C)CC(=O)*

Tests used:
Plasmepsin V (PmV) = target: T1, Plasmepsin V (PmV) (Plasmodium falciparum, UniProt Q8I6Z5); experiment: PmV inhibition, fluorimetric PExEl cleavage assay; type: biochemical
T1 construct: PmV was purified directly from parasites; made in house
T1 sequence (Q8I6Z5 whole entry): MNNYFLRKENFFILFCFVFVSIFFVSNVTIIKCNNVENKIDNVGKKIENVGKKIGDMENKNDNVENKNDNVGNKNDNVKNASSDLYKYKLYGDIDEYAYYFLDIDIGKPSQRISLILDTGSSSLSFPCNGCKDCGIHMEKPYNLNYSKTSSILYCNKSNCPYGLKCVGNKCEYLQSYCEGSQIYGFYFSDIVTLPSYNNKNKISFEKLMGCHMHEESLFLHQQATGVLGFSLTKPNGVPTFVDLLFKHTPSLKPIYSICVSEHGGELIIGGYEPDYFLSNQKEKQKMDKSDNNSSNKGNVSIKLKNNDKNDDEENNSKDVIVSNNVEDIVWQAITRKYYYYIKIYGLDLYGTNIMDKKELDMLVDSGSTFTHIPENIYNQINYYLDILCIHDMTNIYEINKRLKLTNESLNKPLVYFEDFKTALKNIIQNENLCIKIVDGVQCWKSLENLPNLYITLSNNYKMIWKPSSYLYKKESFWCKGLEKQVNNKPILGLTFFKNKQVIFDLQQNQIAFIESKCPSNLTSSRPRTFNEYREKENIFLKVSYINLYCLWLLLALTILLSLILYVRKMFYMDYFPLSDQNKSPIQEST
Method: Saponin was added to culture to a final 0.05%; parasites were recovered via centrifugation at 4°C after 5 min of incubation on ice; parasite pellets were then washed twice in cold PBS and either immediately lysed or stored at -80°C until lysis. Parasites were lysed via three pulses of ultra-sonication of 10 sec duration, in PBS containing 0.5% Triton-X100 (TX-100). […] Quick washes of the resin were performed either in batches, or over columns, to remove unbound cellular material (four with ice-cold 0.5% TX-100 in PBS and a final one with cold PBS). Resin-bound PmV was stored in PBS at 4°C and used within 2–3 weeks, larger batches had Glycerol added to them, up to 10%, and were stored at -20°C for up to 5 months. […] Quality and purity of PmV batches were routinely confirmed by protein electrophoresis. Quantification of PmV was performed via densitometry analysis of stained protein SDS-PAGE gels relative to BSA standard curves.
PExEl cleavage activity was monitored by fluorimetric measurement of PExEl cleavage, as previously reported. […] PmV activity was performed at 37°C in 50 mM Tris-Maleate, pH 6.5, 50 mM NaCl, 0.05% TX-100, 2 mM DTT. Assays were routinely conducted in triplicate. Bead-bound enzyme was added to the reaction using ‘end-cut’ micropipette tips in order to facilitate sampling the suspension.
Inhibitory activities were measured in the presence of a substrate concentration of 3 μM by serial dilution of each compound in triplicates. […] Titration curves of the inhibitors were routinely composed of eleven points from 10 μM to 0.1 pM. PmV concentration was kept in the order of low picomolar (≤10 pM). […] Analysis of the half inhibitory activity (IC50) was performed by sigmoidal interpolation of the starting velocities of the hydrolytic reactions for each condition. Starting velocities were calculated on the initial linear range of the product progression curves. […] Data are presented with error bars indicating the standard deviation of three independent activity curves.

[1] = tested on: Plasmodium falciparum strain 3D7; experiment: Parasite growth inhibition by flow cytometry, strain 3D7; type: cell-based; conditions: asynchronous 3D7 cultures, about 4 days, 0.195–200 μM, flow cytometry
[2] = 3 μM HRPII-PExEl substrate, averages of not less than three inhibition curves, read-out: IC50
[3] = 3 μM substrate, tested up to 10 μM, read-out: IC50
[4] = Activity, read-out: pIC50 (converted)

SMILES | Ki (Plasmepsin V (PmV)) [nM] | IC50 (Plasmepsin V (PmV); [2]) [nM] | other results
CC(C)C[C@H](NC(=O)[C@H](CO)NC(=O)[C@@H](N)CCCNC(=N)N)C(O)CN[C@@H](Cc1ccc(O)cc1)C(=O)N[C@@H](CCC(=O)O)C(=O)N[C@@H](C)C(N)=O (mixture of isomers) [Compound 12] | 12.4 | 23.1 | IC50 increase compared to Compound 7a (Plasmepsin V (PmV)): 15 fold
CC(C)C[C@H](NC(=O)[C@@H](N)CCCCN)C(=O)N[C@@H](CC(C)C)C(O)CN[C@@H](C)C(=O)N[C@@H](CCC(N)=O)C(=O)N[C@@H](C)C(N)=O (mixture of isomers) [Compound 18] | – | > 10000 | –
CC(C)C[C@H](NC(=O)[C@@H](N)CCCNC(=N)N)C(=O)N[C@@H](CC(C)C)C(O)CN[C@@H](C)C(=O)N[C@@H](CCC(=O)O)C(N)=O (mixture of isomers) [Compound 22] | 0.22 | 0.42 | –
CC(C)C[C@H](NC(=O)[C@@H](N)CCCNC(=N)N)C(=O)N[C@@H](CC(C)C)C(O)CN[C@@H](C)C(=O)N[C@@H](CCC(N)=O)C(N)=O (mixture of isomers) [Compound 23] | 6.94 | 12.9 | IC50 increase compared to Compound 8a (Plasmepsin V (PmV)): 2.5 fold
CC(C)C[C@H](NC(=O)[C@@H](N)CCCNC(=N)N)C(=O)N[C@@H](CC(C)C)C(O)CN[C@@H](C)C(=O)NCC(=O)O (mixture of isomers) [Compound 25] | 8.03 | 15 | –
CC(C)C[C@H](NC(=O)[C@@H](N)Cc1c[nH]c2ccccc12)C(=O)N[C@@H](CC(C)C)C(O)CN[C@@H](C)C(=O)N[C@@H](CCC(=O)O)C(N)=O (mixture of isomers) [Compound 31] | – | – | IC50 (Plasmepsin V (PmV); [3]): > 10000 nM
CC(C)C[C@H](NC(=O)[C@@H](N)Cc1c[nH]c2ccccc12)C(=O)N[C@@H](CC(C)C)C(O)CN[C@@H](C)C(=O)N[C@@H](CCC(=O)O)C(N)=O (mixture of isomers) [LG51_Mix] | – | – | IC50 (Plasmepsin V (PmV); Activity, read-out: IC50): 39500 nM; IC50 (Plasmepsin V (PmV); [4]): 39800 nM
CC(C)C[C@H](NC(=O)[C@@H](N)CCCNC(=N)N)C(=O)N[C@@H](CC(C)C)[C@@H](O)CN[C@@H](Cc1ccc(O)cc1)C(=O)N[C@@H](CCC(=O)O)C(N)=O [Compound 2a] | 0.98 | 1.83 | –
CC(C)C[C@H](NC(=O)[C@@H](N)CCCNC(=N)N)C(=O)N[C@@H](CC(C)C)[C@H](O)CN[C@@H](Cc1ccc(O)cc1)C(=O)N[C@@H](CCC(=O)O)C(N)=O [Compound 2b] | 17.3 | 32.2 | –
CC(C)C[C@H](NC(=O)[C@@H](N)Cc1ccc(O)cc1)C(=O)N[C@@H](CC(C)C)[C@@H](O)CN[C@@H](C)C(=O)N[C@@H](CCC(=O)O)C(=O)N[C@@H](C)C(N)=O [Compound 3a] | 2510 | 4680 | –
CC(C)C[C@H](NC(=O)[C@@H](N)Cc1ccc(O)cc1)C(=O)N[C@@H](CC(C)C)[C@H](O)CN[C@@H](C)C(=O)N[C@@H](CCC(=O)O)C(=O)N[C@@H](C)C(N)=O [Compound 3b] | 6570 | ~12200 | –
CC(C)C[C@H](NC(=O)[C@@H](N)CCCNC(=N)N)C(=O)N[C@@H](CC(C)C)[C@@H](O)CN[C@@H](Cc1ccc(O)cc1)C(=O)N[C@@H](CCC(=O)O)C(=O)N[C@@H](C)C(N)=O [Compound 7a] | 0.74 | 1.38 | IC50 increase compared to Compound 1 (Plasmepsin V (PmV)): 4–7 fold
CC(C)C[C@H](NC(=O)[C@@H](N)CCCNC(=N)N)C(=O)N[C@@H](CC(C)C)[C@H](O)CN[C@@H](C)C(=O)N[C@@H](CCC(N)=O)C(=O)N[C@@H](C)C(N)=O [Compound 8b] | – | – | LD50 growth inhibition [1]: ~ 120.5 μM
CC(C)C[C@H](NC(=O)[C@@H](N)CCCNC(=N)N)C(=O)N[C@@H](CC(C)C)[C@@H](O)CN[C@@H](Cc1ccc(O)cc1)C(=O)N[C@@H](CCC(N)=O)C(=O)N[C@@H](C)C(N)=O [Compound 9a] | 6.8 | 12.7 | IC50 increase compared to Compound 7a (Plasmepsin V (PmV)): ~ 9 fold; IC50 increase compared to Compound 8a (Plasmepsin V (PmV)): 4–7 fold
CC(C)C[C@H](NC(=O)[C@H](C)NC(=O)[C@@H](N)CCCNC(=N)N)[C@@H](O)CN[C@@H](Cc1ccc(O)cc1)C(=O)N[C@@H](CCC(=O)O)C(=O)N[C@@H](C)C(N)=O [Compound 11a] | 3.3 | 6.14 | IC50 increase compared to Compound 7a (Plasmepsin V (PmV)): 5 fold
CC(C)C[C@H](NC(=O)[C@@H](N)CCCCN)C(=O)N[C@@H](CC(C)C)[C@@H](O)CN[C@@H](C)C(=O)N[C@@H](CCC(=O)O)C(=O)N[C@@H](C)C(N)=O [Compound 13a] | 412 | 767 | IC50 (Plasmepsin V (PmV); [3]): 770 nM
CC(C)C[C@H](NC(=O)[C@@H](N)Cc1c[nH]cn1)C(=O)N[C@@H](CC(C)C)[C@@H](O)CN[C@@H](C)C(=O)N[C@@H](CCC(=O)O)C(=O)N[C@@H](C)C(N)=O [Compound 14a] | 910 | 1690 | –

SMILES | Ki (Plasmepsin V (PmV)) [nM] | IC50 (Plasmepsin V (PmV); [2]) [nM] | other results
CC(C)C[C@H](NC(=O)[C@@H](N)Cc1c[nH]c2ccccc12)C(=O)N[C@@H](CC(C)C)[C@@H](O)CN[C@@H](C)C(=O)N[C@@H](CCC(N)=O)C(=O)N[C@@H](C)C(N)=O [Compound 19a] | 2760 | 5130 | –
CC(C)C[C@H](NC(=O)[C@@H](N)Cc1c[nH]cn1)C(=O)N[C@@H](CC(C)C)[C@@H](O)CN[C@@H](Cc1ccc(O)cc1)C(=O)N[C@@H](CCC(N)=O)C(=O)N[C@@H](C)C(N)=O [Compound 20a] | 4410 | 8200 | –
CC(C)C[C@H](NC(=O)[C@@H](N)Cc1c[nH]c2ccccc12)C(=O)N[C@@H](CC(C)C)[C@@H](O)CN[C@@H](Cc1ccc(O)cc1)C(=O)N[C@@H](CCC(N)=O)C(=O)N[C@@H](C)C(N)=O [Compound 21a] | 673 | 1250 | –
CC(C)C[C@H](NC(=O)[C@@H](N)CCCNC(=N)N)C(=O)N[C@@H](CC(C)C)[C@@H](O)CN[C@@H](C)C(=O)N[C@@H](CCC(N)=O)C(=O)O [Compound 24a] | 8.9 | 16.6 | –
CC(C)C[C@H](NC(=O)[C@@H](N)CCCNC(=N)N)C(=O)N[C@@H](CC(C)C)[C@@H](O)CN[C@@H](Cc1ccc(O)cc1)C(=O)N[C@@H](CCC(N)=O)C(=O)O [Compound 26a] | 9.35 | 17.4 | –
CC(C)C[C@H](NC(=O)[C@@H](N)CCCNC(=N)N)C(=O)N[C@@H](CC(C)C)[C@@H](O)CN[C@@H](Cc1ccc(O)cc1)C(=O)NCC(=O)O [Compound 27a] | 1.86 | 3.47 | –
CC(C)C[C@H](NC(=O)[C@@H](N)CCCCN)C(=O)N[C@@H](CC(C)C)[C@@H](O)CN[C@@H](Cc1ccc(O)cc1)C(=O)N[C@@H](CCC(=O)O)C(N)=O [Compound 30a] | – | – | IC50 (Plasmepsin V (PmV); [3]): > 10000 nM
CC(C)C[C@H](NC(=O)[C@@H](N)Cc1c[nH]c2ccccc12)C(=O)N[C@@H](CC(C)C)[C@@H](O)CN[C@@H](Cc1ccc(O)cc1)C(=O)N[C@@H](CCC(=O)O)C(N)=O [Compound 32a] | – | – | IC50 (Plasmepsin V (PmV); [3]): > 10000 nM
CC(C)C[C@H](NC(=O)[C@@H](N)Cc1c[nH]c2ccccc12)C(=O)N[C@@H](CC(C)C)[C@@H](O)CN[C@@H](CO)C(=O)N[C@@H](CCC(=O)O)C(N)=O [Compound 33a] | – | – | IC50 (Plasmepsin V (PmV); [3]): > 10000 nM
CC(C)C[C@H](NC(=O)[C@@H](N)Cc1c[nH]c2ccccc12)C(=O)N[C@@H](CC(C)C)[C@@H](O)CN[C@H](C(=O)N[C@@H](CCC(=O)O)C(N)=O)[C@@H](C)O [Compound 34a] | – | – | IC50 (Plasmepsin V (PmV); [3]): > 10000 nM
CC(C)C[C@H](NC(=O)[C@@H](N)CCCNC(=N)N)C(=O)N[C@@H](CC(C)C)C(O)CN[C@@H](C)C(=O)N[C@@H](CCC(=O)O)C(=O)N[C@@H](C)C(N)=O (some centres unmarked) [LG20_Mix] | – | – | IC50 (Plasmepsin V (PmV); Activity, read-out: IC50): 0.37 nM; IC50 (Plasmepsin V (PmV); [4]): 0.363 nM
CC(C)C[C@H](NC(=O)[C@@H](N)CCCCN)C(=O)N[C@@H](CC(C)C)[C@@H](O)CN[C@@H](C)C(=O)N[C@@H](CCC(=O)O)C(N)=O [LG61A_S] | – | – | IC50 (Plasmepsin V (PmV); Activity, read-out: IC50): 8180 nM; IC50 (Plasmepsin V (PmV); [4]): 8130 nM
CC(C)C[C@H](NC(=O)[C@@H](N)CCCCN)C(=O)N[C@@H](CC(C)C)[C@@H](O)CN[C@@H](Cc1ccc(O)cc1)C(=O)N[C@@H](CCC(=O)O)C(N)=O [LG62A_S] | – | – | IC50 (Plasmepsin V (PmV); Activity, read-out: IC50): 17500 nM; IC50 (Plasmepsin V (PmV); [4]): 17400 nM
CCCCCCCC(=O)N[C@@H](CCCNC(=N)N)C(=O)N[C@@H](CC(C)C)C(=O)N[C@@H](CC(C)C)[C@H](O)CN[C@@H](Cc1ccc(O)cc1)C(=O)N[C@@H](CCC(=O)O)C(=O)N[C@@H](C)C(N)=O [LG63B_R] | – | – | IC50 (Plasmepsin V (PmV); Activity, read-out: IC50): 1.57 nM; IC50 (Plasmepsin V (PmV); [4]): 1.58 nM
CC(C)C[C@H](NC(=O)[C@@H](N)CCCNC(=N)N)C(=O)N[C@@H](CC(C)C)[C@H](O)CN[C@@H](Cc1ccc(O)cc1)C(=O)NCC(=O)O [LG69B_R] | – | – | IC50 (Plasmepsin V (PmV); Activity, read-out: IC50): 111 nM; IC50 (Plasmepsin V (PmV); [4]): 112 nM
Cc1cccc(C)c1OCC(=O)N[C@@H](Cc1ccccc1)[C@@H](O)C[C@H](Cc1ccccc1)NC(=O)[C@H](C(C)C)N1CCCNC1=O [Lopinavir, reference compound] | 11000 | 20600 | –
CC(C)CC(=O)N[C@H](C(=O)N[C@H](C(=O)N[C@@H](CC(C)C)[C@@H](O)CC(=O)N[C@@H](C)C(=O)N[C@@H](CC(C)C)[C@@H](O)CC(=O)O)C(C)C)C(C)C [Pepstatin A, reference compound] (Isovaleryl-VV[Sta]A[Sta]-OH) | 23400 | 43500 | –
